# Data reported in the supplement of paper PMC10307832.
# How the values were obtained:
# Experiment in all cases: relative viability (nuclei count vs DMSO), 5 days (fraction); higher = more cells survive
# [1] = tested on: 201T
# Method in brief: (§1)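 The day after seeding in 1536-well plates, lung cancer cell lines were treated by pin tool with a single drug, or with a fixed anchor-drug dose together with five library-drug doses (not always all listed) in √10 steps. After 5 days, a combined fix-and-stain solution (final 0.05% Triton X-100, 1% formaldehyde, 1 ug/ml Hoechst) was added. Nuclei counted on 4× images gave relative viability as treated counts over vehicle counts, reported as the median of duplicate plates.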
# [2] = tested on: BEN
# Method in brief: as §1
# [3] = tested on: COR-L 105
# Method in brief: as §1
# [4] = tested on: EKVX
# Method in brief: as §1
# [5] = tested on: EPLC-272H
# Method in brief: as §1
# [6] = tested on: H3255
# Method in brief: as §1
# [7] = tested on: HCC-44
# Method in brief: as §1
# [8] = tested on: LCLC-97TM1
# Method in brief: as §1
# [9] = tested on: LOU-NH91
# Method in brief: as §1
# [10] = tested on: LU99A
# Method in brief: as §1
# [11] = tested on: NCI-H1437
# Method in brief: as §1
# [12] = tested on: NCI-H1666
# Method in brief: as §1
# [13] = tested on: NCI-H1975
# Method in brief: as §1
# [14] = tested on: NCI-H2085
# Method in brief: as §1
# [15] = tested on: NCI-H2087
# Method in brief: as §1
# [16] = tested on: NCI-H2170
# Method in brief: as §1
# [17] = tested on: NCI-H647
# Method in brief: as §1
# [18] = tested on: NCI-H650
# Method in brief: as §1
# [19] = tested on: PC-3 [JPC-3]
# Method in brief: as §1
# [20] = tested on: SW 1573
# Method in brief: as §1
smiles,measurement,setting,value
CC(=O)O[C@@]12CO[C@@H]1C[C@H](O)[C@@]1(C)C(=O)[C@H](O)C3=C(C)[C@@H](OC(=O)[C@H](O)[C@@H](NC(=O)OC(C)(C)C)c4ccccc4)C[C@@](O)([C@@H](OC(=O)c4ccccc4)[C@H]21)C3(C)C [Docetaxel] + CS(=O)(=O)CCNCc1ccc(-c2ccc3ncnc(Nc4ccc(OCc5cccc(F)c5)c(Cl)c4)c3c2)o1 [Lapatinib] (partner 2 µM),relative viability,[1]; first compound 0.0002 µM,0.917
same,relative viability,[1]; first compound 0.000632 µM,0.937
same,relative viability,[1]; first compound 0.002 µM,0.822
same,relative viability,[1]; first compound 0.006325 µM,0.622
same,relative viability,[1]; first compound 0.02 µM,0.373
same,relative viability,[2]; first compound 0.0002 µM,0.582
same,relative viability,[2]; first compound 0.000632 µM,0.549
same,relative viability,[2]; first compound 0.002 µM,0.233
same,relative viability,[2]; first compound 0.006325 µM,0.203
same,relative viability,[2]; first compound 0.02 µM,0.176
same,relative viability,[3]; first compound 0.0002 µM,0.369
same,relative viability,[3]; first compound 0.000632 µM,0.277
same,relative viability,[3]; first compound 0.002 µM,0.313
same,relative viability,[3]; first compound 0.006325 µM,0.283
same,relative viability,[3]; first compound 0.02 µM,0.268
same,relative viability,[4]; first compound 0.0002 µM,0.212
same,relative viability,[4]; first compound 0.000632 µM,0.173
same,relative viability,[4]; first compound 0.002 µM,0.14
same,relative viability,[4]; first compound 0.006325 µM,0.141
same,relative viability,[4]; first compound 0.02 µM,0.119
same,relative viability,[5]; first compound 0.0002 µM,1.04
same,relative viability,[5]; first compound 0.000632 µM,0.76
same,relative viability,[5]; first compound 0.002 µM,0.199
same,relative viability,[5]; first compound 0.006325 µM,0.0933
same,relative viability,[5]; first compound 0.02 µM,0.114
same,relative viability,[6]; first compound 0.0002 µM,0.227
same,relative viability,[6]; first compound 0.002 µM,0.223
same,relative viability,[6]; first compound 0.006325 µM,0.19
same,relative viability,[6]; first compound 0.02 µM,0.175
same,relative viability,[7]; first compound 0.0002 µM,0.936
same,relative viability,[7]; first compound 0.000632 µM,0.961
same,relative viability,[7]; first compound 0.002 µM,0.621
same,relative viability,[7]; first compound 0.006325 µM,0.22
same,relative viability,[7]; first compound 0.02 µM,0.115
same,relative viability,[8]; first compound 0.000632 µM,0.865
same,relative viability,[8]; first compound 0.002 µM,0.155
same,relative viability,[8]; first compound 0.006325 µM,0.175
same,relative viability,[8]; first compound 0.02 µM,0.083
same,relative viability,[9]; first compound 0.0002 µM,0.715
same,relative viability,[9]; first compound 0.000632 µM,0.589
same,relative viability,[9]; first compound 0.002 µM,0.462
same,relative viability,[9]; first compound 0.006325 µM,0.361
same,relative viability,[9]; first compound 0.02 µM,0.351
same,relative viability,[10]; first compound 0.0002 µM,0.799
same,relative viability,[10]; first compound 0.000632 µM,0.424
same,relative viability,[10]; first compound 0.002 µM,0.423
same,relative viability,[10]; first compound 0.006325 µM,0.255
same,relative viability,[10]; first compound 0.02 µM,0.188
same,relative viability,[11]; first compound 0.0002 µM,0.663
same,relative viability,[11]; first compound 0.000632 µM,0.508
same,relative viability,[11]; first compound 0.002 µM,0.185
same,relative viability,[11]; first compound 0.006325 µM,0.12
same,relative viability,[11]; first compound 0.02 µM,0.089
same,relative viability,[12]; first compound 0.0002 µM,0.462
same,relative viability,[12]; first compound 0.000632 µM,0.461
same,relative viability,[12]; first compound 0.002 µM,0.299
same,relative viability,[12]; first compound 0.006325 µM,0.197
same,relative viability,[12]; first compound 0.02 µM,0.198
same,relative viability,[13]; first compound 0.0002 µM,0.884
same,relative viability,[13]; first compound 0.000632 µM,0.449
same,relative viability,[13]; first compound 0.002 µM,0.268
same,relative viability,[13]; first compound 0.006325 µM,0.175
same,relative viability,[13]; first compound 0.02 µM,0.142
same,relative viability,[14]; first compound 0.0002 µM,0.787
same,relative viability,[14]; first compound 0.000632 µM,0.71
same,relative viability,[14]; first compound 0.002 µM,0.507
same,relative viability,[14]; first compound 0.006325 µM,0.462
same,relative viability,[14]; first compound 0.02 µM,0.342
same,relative viability,[15]; first compound 0.0002 µM,0.831
same,relative viability,[15]; first compound 0.000632 µM,0.678
same,relative viability,[15]; first compound 0.002 µM,0.351
same,relative viability,[15]; first compound 0.006325 µM,0.269
same,relative viability,[15]; first compound 0.02 µM,0.137
same,relative viability,[16]; first compound 0.0002 µM,0.279
same,relative viability,[16]; first compound 0.000632 µM,0.265
same,relative viability,[16]; first compound 0.002 µM,0.194
same,relative viability,[16]; first compound 0.006325 µM,0.224
same,relative viability,[16]; first compound 0.02 µM,0.184
same,relative viability,[17]; first compound 0.0002 µM,0.868
same,relative viability,[17]; first compound 0.000632 µM,0.217
same,relative viability,[17]; first compound 0.002 µM,0.119
same,relative viability,[17]; first compound 0.006325 µM,0.0918
same,relative viability,[17]; first compound 0.02 µM,0.0858
same,relative viability,[18]; first compound 0.0002 µM,0.554
same,relative viability,[18]; first compound 0.000632 µM,0.384
same,relative viability,[18]; first compound 0.002 µM,0.307
same,relative viability,[18]; first compound 0.02 µM,0.168
same,relative viability,[19]; first compound 0.0002 µM,0.44
same,relative viability,[19]; first compound 0.000632 µM,0.476
same,relative viability,[19]; first compound 0.002 µM,0.385
same,relative viability,[19]; first compound 0.006325 µM,0.295
same,relative viability,[19]; first compound 0.02 µM,0.197
same,relative viability,[20]; first compound 0.0002 µM,1.06
same,relative viability,[20]; first compound 0.000632 µM,0.946
same,relative viability,[20]; first compound 0.002 µM,0.321
same,relative viability,[20]; first compound 0.006325 µM,0.256
same,relative viability,[20]; first compound 0.02 µM,0.192
